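The compound was tested at five concentrations on cells cultured in 96-well plates, with a 48-hour exposure period. TGI: total growth inhibition.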
Experiments:
Assay in all cases: growth of human tumour cells (NCI), 48 h
[1] = tested on: SK-OV-3 ovarian
[2] = tested on: 786-0 renal
[3] = tested on: ACHN renal
[4] = tested on: NCI/ADR-RES ovarian
[5] = tested on: OVCAR-4 ovarian
[6] = tested on: OVCAR-5 ovarian
[7] = tested on: MDA-N
[8] = tested on: U251 CNS
[9] = tested on: HT29 colon
[10] = tested on: UACC-62 melanoma
[11] = tested on: MALME-3M melanoma
[12] = tested on: A498 renal
[13] = tested on: RPMI-8226 leukemia
[14] = tested on: NCI-H23 lung
[15] = tested on: SW-620 colon
[16] = tested on: K-562 leukemia
[17] = tested on: PC-3 prostate
[18] = tested on: HCT-116 colon
[19] = tested on: OVCAR-8 ovarian
[20] = tested on: HS 578T breast
[21] = tested on: SN12C renal
[22] = tested on: NCI-H460 lung
[23] = tested on: HOP-62 NSCLC
[24] = tested on: MDA-MB-435
[25] = tested on: SF-295 CNS
[26] = tested on: HCT-15 colon
[27] = tested on: M14 melanoma
[28] = tested on: SK-MEL-2 melanoma
[29] = tested on: SNB-19 CNS
[30] = tested on: SF-539 CNS
[31] = tested on: HCC-2998 colon
[32] = tested on: KM12 colon
[33] = tested on: SK-MEL-28 melanoma
[34] = tested on: EKVX NSCLC
[35] = tested on: CAKI-1 renal
[36] = tested on: SF-268 CNS
[37] = tested on: T-47D breast
[38] = tested on: COLO 205 colon
[39] = tested on: MOLT-4 leukemia
[40] = tested on: UACC-257 melanoma
[41] = tested on: MDA-MB-231 breast
[42] = tested on: BT-549 breast
[43] = tested on: UO-31 renal
[44] = tested on: MCF7 breast
[45] = tested on: A549 NSCLC
[46] = tested on: SNB-75 CNS
[47] = tested on: NCI-H226 lung
[48] = tested on: DU-145 prostate
[49] = tested on: OVCAR-3 ovarian
[50] = tested on: CCRF-CEM leukemia
[51] = tested on: NCI-H522 lung
[52] = tested on: HOP-92 NSCLC
[53] = tested on: RXF 393 renal
[54] = tested on: HL-60(TB) leukemia
[55] = tested on: IGROV1 ovarian
[56] = tested on: TK-10 renal
[57] = tested on: SK-MEL-5 melanoma

Measured: TGI

O=[N+]([O-])C(=C1NCCN1)/C(Cl)=C(/Cl)N1CCOCC1
not listed: [51] | [52] | [53] | [54] | [55] | [56] | [57]
> 100 µM: all other assays above

COc1cc2c(cc1OC)C1C(O)C(OC)C(Br)C3(Br)CCN(C2)C13 (stereo not given)
not listed: [16]
> 100 µM: all other assays above

CC(NC(=O)C(C)C(=O)Nc1ccc(C(F)(F)F)cc1)C(N)=O (stereo not given)
not listed: [5] | [12] | [23] | [31] | [33] | [39] | [49] | [56]
> 100 µM: all other assays above
